# Reference: PubChem BioAssay (NCI)
#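 Five concentrations, 48 hours, 96-well plates. TGI is the concentration that stops growth completely.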
# Key:
# Experiment in all cases: growth of human tumour cells (NCI), 48 h
# HOP-18 NSCLC = tested on: HOP-18 NSCLC
# NCI-H522 lung = tested on: NCI-H522 lung
# XF 498 CNS = tested on: XF 498 CNS
# TK-10 renal = tested on: TK-10 renal
# DLD-1 colon = tested on: DLD-1 colon
# SNB-19 CNS = tested on: SNB-19 CNS
# UO-31 renal = tested on: UO-31 renal
# SF-268 CNS = tested on: SF-268 CNS
# HCT-15 colon = tested on: HCT-15 colon
# DMS 114 small cell lung = tested on: DMS 114 small cell lung
# SK-MEL-2 melanoma = tested on: SK-MEL-2 melanoma
# IGROV1 ovarian = tested on: IGROV1 ovarian
# 786-0 renal = tested on: 786-0 renal
# OVCAR-4 ovarian = tested on: OVCAR-4 ovarian
# COLO 205 colon = tested on: COLO 205 colon
# K-562 leukemia = tested on: K-562 leukemia
# CCRF-CEM leukemia = tested on: CCRF-CEM leukemia
# A549 NSCLC = tested on: A549 NSCLC
# SF-295 CNS = tested on: SF-295 CNS
# DU-145 prostate = tested on: DU-145 prostate
# U251 CNS = tested on: U251 CNS
# HCT-116 colon = tested on: HCT-116 colon
# RXF 393 renal = tested on: RXF 393 renal
# NCI-H23 lung = tested on: NCI-H23 lung
# M19-MEL melanoma = tested on: M19-MEL melanoma
# NCI-H460 lung = tested on: NCI-H460 lung
# SNB-78 CNS = tested on: SNB-78 CNS
# HL-60(TB) leukemia = tested on: HL-60(TB) leukemia
# MOLT-4 leukemia = tested on: MOLT-4 leukemia
# LOX IMVI melanoma = tested on: LOX IMVI melanoma
# PC-3 prostate = tested on: PC-3 prostate
# EKVX NSCLC = tested on: EKVX NSCLC
# CAKI-1 renal = tested on: CAKI-1 renal
# OVCAR-3 ovarian = tested on: OVCAR-3 ovarian
# OVCAR-5 ovarian = tested on: OVCAR-5 ovarian
# LXFL 529 NSCLC = tested on: LXFL 529 NSCLC
# DMS 273 small cell lung = tested on: DMS 273 small cell lung
# ACHN renal = tested on: ACHN renal
# SN12C renal = tested on: SN12C renal
# A498 renal = tested on: A498 renal
# NCI-H226 lung = tested on: NCI-H226 lung
# HT29 colon = tested on: HT29 colon
# HOP-62 NSCLC = tested on: HOP-62 NSCLC
# UACC-257 melanoma = tested on: UACC-257 melanoma
# SK-MEL-5 melanoma = tested on: SK-MEL-5 melanoma
# HOP-92 NSCLC = tested on: HOP-92 NSCLC
# MALME-3M melanoma = tested on: MALME-3M melanoma
# SF-539 CNS = tested on: SF-539 CNS
# OVCAR-8 ovarian = tested on: OVCAR-8 ovarian
# RPMI-8226 leukemia = tested on: RPMI-8226 leukemia
# SR leukemia = tested on: SR leukemia
# M14 melanoma = tested on: M14 melanoma
# SK-OV-3 ovarian = tested on: SK-OV-3 ovarian
# HCC-2998 colon = tested on: HCC-2998 colon
# UACC-62 melanoma = tested on: UACC-62 melanoma
# SNB-75 CNS = tested on: SNB-75 CNS
# KM20L2 colon = tested on: KM20L2 colon
# KM12 colon = tested on: KM12 colon
# SW-620 colon = tested on: SW-620 colon
# SK-MEL-28 melanoma = tested on: SK-MEL-28 melanoma
# RXF-631 renal = tested on: RXF-631 renal
smiles,measurement,setting,value
COc1ccc(OC)c(/C=C/NC=O)c1,TGI,HOP-18 NSCLC,> 100 µM
same,TGI,NCI-H522 lung,> 100 µM
same,TGI,XF 498 CNS,> 100 µM
same,TGI,TK-10 renal,> 100 µM
same,TGI,DLD-1 colon,> 100 µM
same,TGI,SNB-19 CNS,> 100 µM
same,TGI,UO-31 renal,> 100 µM
same,TGI,SF-268 CNS,> 100 µM
same,TGI,HCT-15 colon,> 100 µM
same,TGI,DMS 114 small cell lung,> 100 µM
same,TGI,SK-MEL-2 melanoma,> 100 µM
same,TGI,IGROV1 ovarian,> 100 µM
same,TGI,786-0 renal,> 100 µM
same,TGI,OVCAR-4 ovarian,> 100 µM
same,TGI,COLO 205 colon,> 100 µM
same,TGI,K-562 leukemia,> 100 µM
same,TGI,CCRF-CEM leukemia,> 100 µM
same,TGI,A549 NSCLC,> 100 µM
same,TGI,SF-295 CNS,> 100 µM
same,TGI,DU-145 prostate,> 100 µM
same,TGI,U251 CNS,> 100 µM
same,TGI,HCT-116 colon,> 100 µM
same,TGI,RXF 393 renal,> 100 µM
same,TGI,NCI-H23 lung,> 100 µM
same,TGI,M19-MEL melanoma,> 100 µM
same,TGI,NCI-H460 lung,> 100 µM
same,TGI,SNB-78 CNS,> 100 µM
same,TGI,HL-60(TB) leukemia,> 100 µM
same,TGI,MOLT-4 leukemia,> 100 µM
same,TGI,LOX IMVI melanoma,> 100 µM
same,TGI,PC-3 prostate,> 100 µM
same,TGI,EKVX NSCLC,> 100 µM
same,TGI,CAKI-1 renal,> 100 µM
same,TGI,OVCAR-3 ovarian,> 100 µM
same,TGI,OVCAR-5 ovarian,> 100 µM
same,TGI,LXFL 529 NSCLC,> 100 µM
same,TGI,DMS 273 small cell lung,> 100 µM
same,TGI,ACHN renal,> 100 µM
same,TGI,SN12C renal,> 100 µM
same,TGI,A498 renal,> 100 µM
same,TGI,NCI-H226 lung,> 100 µM
same,TGI,HT29 colon,> 100 µM
same,TGI,HOP-62 NSCLC,> 100 µM
same,TGI,UACC-257 melanoma,> 100 µM
same,TGI,SK-MEL-5 melanoma,> 100 µM
same,TGI,HOP-92 NSCLC,> 100 µM
same,TGI,MALME-3M melanoma,> 100 µM
same,TGI,SF-539 CNS,> 100 µM
same,TGI,OVCAR-8 ovarian,> 100 µM
same,TGI,RPMI-8226 leukemia,> 100 µM
same,TGI,SR leukemia,> 31.6 µM
same,TGI,M14 melanoma,> 100 µM
same,TGI,SK-OV-3 ovarian,> 100 µM
same,TGI,HCC-2998 colon,> 100 µM
same,TGI,UACC-62 melanoma,> 100 µM
same,TGI,SNB-75 CNS,> 100 µM
same,TGI,KM20L2 colon,> 100 µM
same,TGI,KM12 colon,> 100 µM
same,TGI,SW-620 colon,> 100 µM
same,TGI,SK-MEL-28 melanoma,> 100 µM
Nc1c(-c2ccc(Br)cc2)[n+]([O-])c2ccccc2[n+]1[O-],TGI,HOP-18 NSCLC,> 100 µM
same,TGI,NCI-H522 lung,> 100 µM
same,TGI,DLD-1 colon,> 100 µM
same,TGI,SNB-19 CNS,> 100 µM
same,TGI,UO-31 renal,> 100 µM
same,TGI,SF-268 CNS,> 100 µM
same,TGI,HCT-15 colon,> 100 µM
same,TGI,DMS 114 small cell lung,> 100 µM
same,TGI,SK-MEL-2 melanoma,> 100 µM
same,TGI,IGROV1 ovarian,> 100 µM
same,TGI,786-0 renal,> 100 µM
same,TGI,OVCAR-4 ovarian,> 100 µM
same,TGI,COLO 205 colon,> 100 µM
same,TGI,K-562 leukemia,> 100 µM
same,TGI,A549 NSCLC,> 100 µM
same,TGI,SF-295 CNS,> 100 µM
same,TGI,U251 CNS,> 100 µM
same,TGI,HCT-116 colon,> 100 µM
same,TGI,NCI-H23 lung,> 100 µM
same,TGI,NCI-H460 lung,> 100 µM
same,TGI,SNB-78 CNS,> 100 µM
same,TGI,HL-60(TB) leukemia,> 100 µM
same,TGI,MOLT-4 leukemia,> 100 µM
same,TGI,EKVX NSCLC,> 100 µM
same,TGI,RXF-631 renal,> 100 µM
same,TGI,CAKI-1 renal,> 100 µM
same,TGI,OVCAR-3 ovarian,> 100 µM
same,TGI,OVCAR-5 ovarian,> 100 µM
same,TGI,LXFL 529 NSCLC,> 100 µM
same,TGI,DMS 273 small cell lung,> 100 µM
same,TGI,ACHN renal,> 100 µM
same,TGI,SN12C renal,> 100 µM
same,TGI,A498 renal,> 100 µM
same,TGI,NCI-H226 lung,> 100 µM
same,TGI,HT29 colon,> 100 µM
same,TGI,HOP-62 NSCLC,> 100 µM
same,TGI,UACC-257 melanoma,> 100 µM
same,TGI,SK-MEL-5 melanoma,> 100 µM
same,TGI,HOP-92 NSCLC,> 100 µM
same,TGI,MALME-3M melanoma,> 100 µM
same,TGI,SF-539 CNS,> 100 µM
same,TGI,OVCAR-8 ovarian,> 100 µM
same,TGI,RPMI-8226 leukemia,78.3 µM
same,TGI,M14 melanoma,> 100 µM
same,TGI,SK-OV-3 ovarian,> 100 µM
same,TGI,SNB-75 CNS,> 100 µM
same,TGI,KM20L2 colon,> 100 µM
same,TGI,KM12 colon,> 100 µM
same,TGI,SW-620 colon,> 100 µM
same,TGI,SK-MEL-28 melanoma,> 100 µM
CCc1nc2ccccc2c(=O)n1/N=C(\N=Nc1ccc(Cl)cc1)c1ccccc1Cl,TGI,HOP-18 NSCLC,> 100 µM
same,TGI,XF 498 CNS,71.6 µM
same,TGI,TK-10 renal,> 100 µM
same,TGI,UO-31 renal,69.9 µM
same,TGI,SF-268 CNS,> 100 µM
same,TGI,HCT-15 colon,> 100 µM
same,TGI,DMS 114 small cell lung,74.2 µM
same,TGI,IGROV1 ovarian,> 100 µM
same,TGI,786-0 renal,> 100 µM
same,TGI,COLO 205 colon,> 100 µM
same,TGI,SF-295 CNS,> 100 µM
same,TGI,U251 CNS,> 100 µM
same,TGI,HCT-116 colon,> 100 µM
same,TGI,RXF 393 renal,72.5 µM
same,TGI,NCI-H23 lung,> 100 µM
same,TGI,M19-MEL melanoma,> 100 µM
same,TGI,NCI-H460 lung,> 100 µM
same,TGI,MOLT-4 leukemia,96.4 µM
same,TGI,LOX IMVI melanoma,> 100 µM
same,TGI,RXF-631 renal,> 100 µM
same,TGI,CAKI-1 renal,> 100 µM
same,TGI,LXFL 529 NSCLC,85.3 µM
same,TGI,DMS 273 small cell lung,> 100 µM
same,TGI,ACHN renal,> 100 µM
same,TGI,SN12C renal,> 100 µM
same,TGI,A498 renal,> 100 µM
same,TGI,HT29 colon,> 100 µM
same,TGI,HOP-62 NSCLC,> 100 µM
same,TGI,HOP-92 NSCLC,64.9 µM
same,TGI,SF-539 CNS,> 100 µM
same,TGI,OVCAR-8 ovarian,> 100 µM
same,TGI,M14 melanoma,> 100 µM
same,TGI,SK-OV-3 ovarian,> 100 µM
same,TGI,UACC-62 melanoma,> 100 µM
same,TGI,KM20L2 colon,> 100 µM
same,TGI,SK-MEL-28 melanoma,80.4 µM
COC(=O)CSc1n[nH]c(-c2ccc(O)c([N+](=O)[O-])c2)n1,TGI,XF 498 CNS,> 100 µM
same,TGI,TK-10 renal,> 100 µM
same,TGI,DLD-1 colon,> 100 µM
same,TGI,SNB-19 CNS,> 100 µM
same,TGI,UO-31 renal,> 100 µM
same,TGI,SF-268 CNS,> 100 µM
same,TGI,HCT-15 colon,> 100 µM
same,TGI,SK-MEL-2 melanoma,> 100 µM
same,TGI,IGROV1 ovarian,> 100 µM
same,TGI,786-0 renal,> 100 µM
same,TGI,OVCAR-4 ovarian,> 100 µM
same,TGI,K-562 leukemia,> 100 µM
same,TGI,CCRF-CEM leukemia,> 100 µM
same,TGI,A549 NSCLC,> 100 µM
same,TGI,SF-295 CNS,> 100 µM
same,TGI,U251 CNS,> 100 µM
same,TGI,HCT-116 colon,> 100 µM
same,TGI,RXF 393 renal,> 100 µM
same,TGI,NCI-H23 lung,> 100 µM
same,TGI,NCI-H460 lung,> 100 µM
same,TGI,HL-60(TB) leukemia,> 100 µM
same,TGI,MOLT-4 leukemia,> 100 µM
same,TGI,LOX IMVI melanoma,> 100 µM
same,TGI,EKVX NSCLC,> 100 µM
same,TGI,RXF-631 renal,> 100 µM
same,TGI,CAKI-1 renal,> 100 µM
same,TGI,OVCAR-3 ovarian,> 100 µM
same,TGI,OVCAR-5 ovarian,> 100 µM
same,TGI,LXFL 529 NSCLC,> 100 µM
same,TGI,DMS 273 small cell lung,> 100 µM
same,TGI,ACHN renal,> 100 µM
same,TGI,SN12C renal,> 100 µM
same,TGI,A498 renal,> 100 µM
same,TGI,NCI-H226 lung,> 100 µM
same,TGI,HT29 colon,> 100 µM
same,TGI,UACC-257 melanoma,> 100 µM
same,TGI,SK-MEL-5 melanoma,> 100 µM
same,TGI,HOP-92 NSCLC,> 100 µM
same,TGI,MALME-3M melanoma,> 100 µM
same,TGI,SF-539 CNS,> 100 µM
same,TGI,OVCAR-8 ovarian,> 100 µM
same,TGI,RPMI-8226 leukemia,> 100 µM
same,TGI,SR leukemia,> 100 µM
same,TGI,M14 melanoma,> 100 µM
same,TGI,HCC-2998 colon,> 100 µM
same,TGI,UACC-62 melanoma,> 100 µM
same,TGI,SNB-75 CNS,> 100 µM
same,TGI,KM20L2 colon,> 100 µM
same,TGI,SW-620 colon,> 100 µM
same,TGI,SK-MEL-28 melanoma,> 100 µM
